In one series the test system is A549 cells. The series is described as follows: Anti-proliferative assay, standard CCK-8 method. Type of series: cell-based, human. The note with it: mean ± SD of at least three independent experiments, read-out: Proliferative inhibition (IC50, μM) A549. From the text:
(§1) All reagents and solvents met the criteria of analytical reagents before use. All cancer cell lines (A549, human non-small-cell lung cell line; HT-29, human colonic adenocarcinoma cell line; MCF-7, human breast cancer cell line) were purchased from Stem Cell Bank, Chinese Academy of Sciences. […] ADP-Glo™ kinase assay kits were provided by Promega (Beijing) Biotech Co., Ltd. (Beijing, China). All kinase subtypes were supplied by SignalChem (BC, Canada).
(§2) The designed 4-anilinoquinazoline derivatives were evaluated for their antitumor bioactivities in vitro against three human tumor cell lines (A549, HT-29, and MCF-7) using the standard CCK-8 method. The CCK-8 method is based on WST-8 dye, 2-(2-methoxy-4-nitrophenyl)-3-(4-nitrophenyl)-5-(2,4-disulfophenyl)-2H-tetrazolium. WST-8 can be bio-reduced by dehydrogenases in mitochondria into orange water-soluble formazan products. Briefly, selected cancer cells in the logarithmic growth phase (1 × 10^4) were inoculated in 96-well plates and further cultured in the incubator for 24 h. First, the target compounds were diluted to different concentrations with culture medium with each dilution gradually diluted from the highest concentration solution. Second, the original culture medium was removed after the cells were completely adherent to the wall, and the compounds at various concentrations prepared above were added. In this experiment, a control group and a blank group were set: the former was treated with 0.1% DMSO solution, and the latter was treated with only the culture medium. […] A microplate reader was adopted to record the absorbance at 450 nm, and in this assay, gefitinib, erlotinib, and sorafenib were used as the reference drugs.

Another series concerns HT-29 cells. The series can be described thus: Anti-proliferative assay, standard CCK-8 method. As to conditions: mean ± SD of at least three independent experiments, read-out: Proliferative inhibition (IC50, μM) HT-29. Type of series: cell-based, human.
Text: as §1, §2

The test system of another series is MCF-7 cells. The series is described as follows: Anti-proliferative assay, standard CCK-8 method. Type of series: cell-based, human. The note with it: read-out: Proliferative inhibition (IC50, μM) MCF-7.
Text: as §1, §2
A general note: Tetrazolium dyes change colour on reduction, which living cells bring about.

Another series addresses T1, EGFR (Homo sapiens, UniProt P00533).
T1 construct: 2 μl (50 ng/ml) of EGFR kinase
The series can be described thus: EGFR kinase inhibition, ADP-Glo assay. Type of series: biochemical. The note with it: ADP-Glo; mean ± SD of at least two independent experiments; read-out: Enzymatic inhibition IC50 (nM) EGFR. As to the method: The EGFR kinase inhibition activities of the target compounds were evaluated by the ADP-Glo™ assay. The ADP-Glo™ kinase detection kit is a luminescence kinase detection approach that detects the amount of ADP produced by the kinase reaction. After ADP is converted into ATP, ATP can be used as the substrate of the luciferase-catalyzed reaction to generate an optical signal, which is positively correlated with kinase activity. […] The above-prepared systems were sealed and incubated at room temperature for 2 h, and 5 μl of ADP-GLO was added to terminate the kinase reaction. Then, the culture plate was sealed and incubated in a thermostatic oscillator for 40 min to fully consume the remaining ATP. The luciferase/luciferin reaction was adopted to determine the newly generated ATP level.

Series [1] relates to A549, HT-29, and MCF-7 cells. The series is described as follows: Anti-proliferative assay, CCK-8, summaries over all three cell lines. Type of series: cell-based. The note with it: Homo sapiens, span over A549, HT-29 and MCF-7 cells, read-out: IC50 against the selected cell lines.
Text: as §1, §2

[2] abbreviates: mean ± SD of at least three independent experiments.
[3] abbreviates: Homo sapiens, MCF7, mean ± SD of at least three independent experiments.

Read-outs that look alike come from different tables or passages of the source.

For orientation: IC50 means the point on the concentration scale where inhibition reaches its midpoint. As a reminder, the melting point is the temperature of the solid-liquid transition.

For the molecule “1-(4-chloro-3-(trifluoromethyl) phenyl)-3-(4-((2,3-dimethylphenyl) amino)-3,4-dihydroquinazolin-6-yl) urea [Compound 7n]”, the concentration for half-maximal inhibition (IC50) was 2.67 ± 0.76 µM with A549 cells, 2.67 ± 1.02 µM in the series with HT-29 cells and 3.11 ± 0.3 µM in the series on MCF-7 cells (setting [2]).
For “1-(4-chloro-3-(trifluoromethyl) phenyl)-3-(4-((2,3-dimethylphenyl) amino)-3,4-dihydroquinazolin-6-yl) urea [Compound 7t]”, the IC50 on EGFR is 728.1 ± 1.65 nM; in the series on A549 cells it was greater than 50 µM; in the series on HT-29 cells it was 48.3 ± 1.9 µM; in the series on MCF-7 cells (setting [2]), greater than 50 µM.
Regarding `O=C(Nc1ccccc1)Nc1ccc2ncnc(Nc3cccc(Br)c3)c2c1` [Compound 7a], the melting point is 250 to 250.9 °C. Moreover, the IC50 with A549 cells (Homo sapiens) was 5.81 ± 0.84 µM. Besides, in the series with HT-29 cells (Homo sapiens), the IC50 was 4.66 ± 0.56 µM. Further, the 50% inhibitory concentration (IC50) with MCF-7 cells (setting [3]) is 15.9 ± 2.28 µM.
Turning to `O=C(Nc1ccccc1)Nc1ccc2ncnc(Nc3ccc(Br)cc3F)c2c1` [Compound 7c], the melting point is 256 to 256.8 °C. Further, at EGFR, the 50% inhibitory concentration (IC50) came to 20.1 ± 2.21 nM. Also, the concentration for half-maximal inhibition (IC50) in the series with A549 cells (Homo sapiens) is 6.16 ± 0.45 µM. In addition, the half-maximal inhibitory concentration (IC50) in the series on HT-29 cells (Homo sapiens) turned out to be 5.92 ± 1.04 µM. The IC50 in the series with MCF-7 cells (setting [3]) was found to be 8.57 ± 0.27 µM.
The matching figures for `O=C(Nc1ccccc1)Nc1ccc2ncnc(Nc3ccc(F)c(Cl)c3)c2c1` [Compound 7d]: 233 to 233.7 °C, 11.8 ± 0.36 nM, 38.65 ± 0.21 µM, 39.2 ± 2.01 µM and 44.2 ± 0.97 µM.
Regarding `O=C(Nc1ccccc1)Nc1ccc2ncnc(Nc3ccc(F)cc3)c2c1` [Compound 7f], the melting point lay in the range of 252.8 to 253.5 °C. Further, the IC50 at EGFR is 11.7 ± 0.79 nM. For the same molecule, the IC50 in the series with A549 cells (Homo sapiens) is greater than 50 µM. Moreover, the half-maximal inhibitory concentration (IC50) with HT-29 cells (Homo sapiens) is 48.3 ± 0.78 µM. For the same molecule, the IC50 in the series with MCF-7 cells (setting [3]) stood at 44.3 ± 1.12 µM.
For `Cc1cccc(Nc2ncnc3ccc(NC(=O)Nc4ccccc4)cc23)c1C` [Compound 7h], the melting point was in the range of 242.8 to 243.7 °C. Further, the half-inhibitory concentration (IC50) in series [1] is greater than 50 µM. Besides, the IC50 on EGFR was determined as 19.7 ± 1.87 nM. For the same molecule, in the series on A549 cells (Homo sapiens), the IC50 was greater than 50 µM. In the series with HT-29 cells (Homo sapiens), the IC50 is greater than 50 µM. Further, the concentration for half-maximal inhibition (IC50) in the series on MCF-7 cells (setting [3]) was greater than 50 µM.
The molecule `O=C(Nc1ccc(Cl)c(C(F)(F)F)c1)Nc1ccc2ncnc(Nc3ccc(Br)cc3)c2c1` [Compound 7k] came in with a melting point of 269.8 to 271.1 °C. Also, the half-maximal inhibitory concentration (IC50) in the series on A549 cells (Homo sapiens) turned out to be 2.79 ± 0.44 µM. The IC50 in the series on HT-29 cells (Homo sapiens) amounted to 2.3 ± 0.5 µM. For the same molecule, the half-maximal inhibitory concentration (IC50) in the series with MCF-7 cells (setting [3]) was 3.54 ± 0.07 µM.
Take `Cc1ccc(NC2NC=Nc3ccc(NC(=O)Nc4ccc(Cl)c(C(F)(F)F)c4)cc32)cc1` (stereo not drawn) [Compound 7m, 1-(4-chloro-3-(trifluoromethyl)phenyl)-3-(4-(p-tolylamino)-3,4-dihydroquina-zolin-6-yl) urea]: the half-inhibitory concentration (IC50) in the series with A549 cells is 5.6 ± 0.31 µM; with HT-29 cells, 2.61 ± 1.25 µM; with MCF-7 cells (setting [2]) it was 5.53 ± 0.39 µM.
Consider `Cc1ccc(Nc2ncnc3ccc(NC(=O)Nc4ccc(F)cc4)cc23)cc1` [Compound 7o], for which the melting point is 247.2 to 248.4 °C. Besides, on EGFR, the concentration for half-maximal inhibition (IC50) turned out to be 123.9 ± 1.09 nM. Further, in the series with A549 cells (Homo sapiens), the IC50 was found to be 35.3 ± 0.57 µM. In addition, in the series with HT-29 cells (Homo sapiens), the IC50 was found to be 7.83 ± 0.97 µM. In addition, the IC50 in the series with MCF-7 cells (setting [3]) stood at 33.7 ± 10.1 µM.
`COc1ccc(NC(=O)Nc2ccc3ncnc(Nc4cccc(C)c4C)c3c2)cc1` [Compound 7p] registered a melting point of 241.1 to 242.7 °C. Also, the IC50 on EGFR turned out to be 58.1 ± 1.99 nM. Also, the IC50 with A549 cells (Homo sapiens) was 9.34 ± 0.73 µM. Moreover, the half-maximal inhibitory concentration (IC50) with HT-29 cells (Homo sapiens) came to 11.1 ± 0.39 µM. Also, the IC50 in the series with MCF-7 cells (setting [3]) turned out to be 40.2 ± 2.13 µM.
Molecule `COc1ccc(NC(=O)Nc2ccc3ncnc(Nc4ccc(Br)cc4)c3c2)cc1` [Compound 7q] came in with a melting point of 267.1 to 268.2 °C. In addition, the 50% inhibitory concentration (IC50) on EGFR was found to be 470.4 ± 1.28 nM. Also, in the series on A549 cells (Homo sapiens), the half-inhibitory concentration (IC50) is 5.21 ± 0.3 µM. Also, the IC50 in the series with HT-29 cells (Homo sapiens) stood at 36.96 ± 0.17 µM. Moreover, the half-maximal inhibitory concentration (IC50) with MCF-7 cells (setting [3]) stood at 17.9 ± 0.89 µM.
For `COc1ccc(NC(=O)Nc2ccc3ncnc(Nc4ccc(F)cc4)c3c2)cc1` [Compound 7r], in that order: 250.2 to 251.8 °C, 59.7 ± 1.31 nM, greater than 50 µM, 48.21 ± 0.23 µM and 46.1 ± 1.98 µM.
The matching figures for `COc1ccc(NC(=O)Nc2ccc3ncnc(Nc4ccc(C)cc4)c3c2)cc1` [Compound 7s]: 259.5 to 260.1 °C, 108 ± 2.64 nM, greater than 50 µM, 46.2 ± 0.57 µM and 47.6 ± 0.76 µM.
`C#Cc1cccc(Nc2ncnc3cc(OCCOC)c(OCCOC)cc23)c1` [Erlotinib, erlotinib, reference compound]: the 50% inhibitory concentration (IC50) is 1.84 to 23.2 µM in series [1], 23.2 ± 0.51 µM in the series with A549 cells (Homo sapiens), 22.8 ± 1.12 µM in the series on HT-29 cells (Homo sapiens) and 11.4 ± 0.43 µM with MCF-7 cells (setting [3]).
For `CNC(=O)c1cc(Oc2ccc(NC(=O)Nc3ccc(Cl)c(C(F)(F)F)c3)cc2)ccn1` [Sorafenib, sorafenib, reference compound], in that order: 1.84 to 23.2 µM, 1.84 ± 0.17 µM, 2.27 ± 0.43 µM and 3.47 ± 0.39 µM.

Source of the values: article PMC8187944, “Discovery of Potent EGFR Inhibitors With 6-Arylureido-4-anilinoquinazoline Derivatives” (Frontiers in Pharmacology, 2021).
